Experimental data from patent US5068247A, “2-aminopentanoic acid compounds and their use as immunosuppressants” (priority 1989, dated 1991).
Values after ≈ are worked out from the molar mass of the structure shown. Like-named read-outs stand apart in the source and are kept apart here. Each block holds one compound with its values, some of them ahead of it.

Experiments:
Type in all cases: cell-based
[1] = tested on: IL-2 production in PHA-stimulated mouse spleen cells; assay: suppression of IL-2 production in PHA-stimulated mouse spleen cells; conditions: for inhibition at 0.001 µg/mL / inhibition at 0.01 µg/mL / inhibition at 0.1 µg/mL / inhibition at 1 µg/mL: Mus musculus, 24 h, read-out: Suppression
Experimental: The suppression of IL-2 and IL-3 production in the mitogen-stimulated mouse spleen cells was examined as follows:
The spleen was resected from 5- to 8-week-old male C3H/HeN mice, and a single cell suspension of spleen cells was prepared by using the RPMI1640 culture medium. After hemolytic treatment, the concentration of the suspension was adjusted to 10^7 cells/ml by using the RPMI1640 culture medium supplemented with 20% FCS, to which 10 μg/ml of phytohemagglutinin (PHA) was added as mitogen. […] After termination of culture, the supernatant was collected and used as the culture supernatant of PHA-stimulated mouse spleen cells.
The IL-2 activity in the culture supernatant of PHA-stimulated mouse spleen cells was assayed as follows:
IL-2 dependent mouse cell line CTLL-2 cells were suspended in the RPMI1640 culture medium supplemented with 30% FCS to the concentration of 2×10^5 cells/ml. One hundred μl of the cell suspension and 100 μl of the two-fold serial dilution of the culture supernatant of PHA-stimulated mouse spleen cells were added to a 96-well flat-bottomed microtest plate. […] The IL-2 activity is expressed in U/ml as the dilution at which the absorbancy measured by MTT method was 50% of the maximum.

[2] = tested on: mouse allogenic MLR (BALB/c mouse spleen cells stimulated with C57BL/6 mouse spleen cells); assay: mouse allogenic mixed lymphocyte reaction (MLR), 3H-thymidine uptake; conditions: for inhibition at 0.0001 µg/mL / inhibition at 0.001 µg/mL / inhibition at 0.01 µg/mL / inhibition at 0.1 µg/mL / inhibition at 1 µg/mL / IC50: Mus musculus, Lymphocyte; for inhibition at 0.0001 µg/mL / inhibition at 0.001 µg/mL / inhibition at 0.01 µg/mL / inhibition at 0.1 µg/mL / inhibition at 1 µg/mL: read-out: Suppression; for IC50: read-out: 50%-inhibition concentration (IC50) in mouse allogenic MLR
Method in brief: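 BALB/c responder spleen cells were mixed in equal amounts with mitomycin C-treated (40 μg/ml, 60 min, 37 °C) C57BL/6 stimulator spleen cells, each at 10^7 cells/ml in RPMI1640 with 20% FCS and 10^-4 M 2-mercaptoethanol. Blastogenesis was read as 3H-thymidine uptake (18.5 KBq/well, 4 h) after culture and expressed as % suppression. Compounds were dissolved in methanol, then diluted in medium.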

[3] = tested on: human allogenic MLR (human peripheral blood lymphocytes); assay: human allogenic MLR-suppressive activity, 3H-thymidine uptake; conditions: for suppressive activity in human allogenic MLR (in words): 1 to 0.0001 μg/ml
Experimental: The human allogenic MLR-suppressive activity was assayed as follows:
Human peripheral blood lymphocytes obtained by Ficoll-Paque density gradient centrifugation of normal human peripheral blood were suspended in the RPMI1640 culture medium supplemented with 10% FCS, placed in a plastic dish, and cultured in an atmosphere of 5% carbon dioxide and 95% air at 37° C. for 2 hours. After termination of culture, the supernatant after gentle pipetting was collected and centrifuged (1000 rpm, for 5 minutes) to obtain plastic-nonadherent cells. The plastic-nonadherent cells were allowed to pass through a nylon-wool column to give nylon-nonadherent cells, and the concentration of the cell suspension was adjusted to 4×10^6 cells/ml by using the RPMI1640 culture medium supplemented with 10% FCS, and used as the responder cell suspension.
The plastic-adherent cells were removed from the plastic dish by vigorous pipetting after addition of phosphate buffered saline (PBS) supplemented with 5% FCS and 0.02% disodium ethylenediaminetetraacetic acid (EDTA). The plastic-adherent cells were treated with 40 μg/ml of mitomycin C at 37° C. for 60 minutes, washed three times, and suspended to the concentration of 4×10^6 cells/ml in the RPMI1640 culture medium supplemented with 10% FCS. The resultant suspension was used as the stimulator cell suspension.
After termination of culture, 37 KBq/well of ^3 H-thymidine was added, and after 18 hours of culture, the cells were harvested by a cell-harvester. The radioactivity incorporated into the cells was measured by a liquid scintillation counter, which was used as an index of blastogenic response of lymphocytes in human allogenic MLR. The suppression of human allogenic MLR was evaluated by calculating the percent suppression by the following formula. [formula]

[4] = Homo sapiens, Lymphocyte, 0.0001 μg/ml, Donor A/Donor B, read-out: Suppression
[5] = Homo sapiens, Lymphocyte, 0.0001 μg/ml, Donor C/Donor D, read-out: Suppression
[6] = Homo sapiens, Lymphocyte, 0.001 μg/ml, Donor A/Donor B, read-out: Suppression
[7] = Homo sapiens, Lymphocyte, 0.001 μg/ml, Donor C/Donor D, read-out: Suppression
[8] = Homo sapiens, Lymphocyte, 0.01 μg/ml, Donor A/Donor B, read-out: Suppression
[9] = Homo sapiens, Lymphocyte, 0.01 μg/ml, Donor C/Donor D, read-out: Suppression
[10] = Homo sapiens, Lymphocyte, 0.1 μg/ml, Donor A/Donor B, read-out: Suppression
[11] = Homo sapiens, Lymphocyte, 0.1 μg/ml, Donor C/Donor D, read-out: Suppression
[12] = Homo sapiens, Lymphocyte, 1 μg/ml, Donor A/Donor B, read-out: Suppression
[13] = Homo sapiens, Lymphocyte, 1 μg/ml, Donor C/Donor D, read-out: Suppression

IC50 [2]: 0.25 µg/mL (≈ 0.523 µM)
SMILES: CCCCCCC1(CCCCCC/C=C/C[C@@H](O)[C@H](O)[C@@](N)(CO)C(=O)O)SCCS1 [Example 3]
IL-2 activity ([1]; 0.001 μg/ml): 14.9 U/ml | IL-2 activity ([1]; 0.01 μg/ml): 13.9 U/ml | IL-2 activity ([1]; 0.1 μg/ml): 12.6 U/ml | IL-2 activity ([1]; 1 μg/ml): 8.6 U/ml | inhibition at 0.001 µg/mL ([1]; 0.001 μg/ml): 0% | inhibition at 0.01 µg/mL ([1]; 0.01 μg/ml): 0% | inhibition at 0.1 µg/mL ([1]; 0.1 μg/ml): 0% | inhibition at 1 µg/mL ([1]; 1 μg/ml): 28.9% | 3H-thymidine uptake ([2]; 0.0001 μg/ml, Table 1A): 17247 cpm | 3H-thymidine uptake ([2]; 0.001 μg/ml, Table 1A): 16263 cpm | 3H-thymidine uptake ([2]; 0.01 μg/ml, Table 1A): 13978 cpm | 3H-thymidine uptake ([2]; 0.1 μg/ml, Table 1A): 14747 cpm | 3H-thymidine uptake ([2]; 1 μg/ml, Table 1A): 631 cpm | inhibition at 0.0001 µg/mL ([2]; 0.0001 μg/ml, Table 1A): 7.1% | inhibition at 0.001 µg/mL ([2]; 0.001 μg/ml, Table 1A): 12.9% | inhibition at 0.01 µg/mL ([2]; 0.01 μg/ml, Table 1A): 26.5% | inhibition at 0.1 µg/mL ([2]; 0.1 μg/ml, Table 1A): 21.9% | inhibition at 1 µg/mL ([2]; 1 μg/ml, Table 1A): 96.2% | 3H-thymidine uptake ([3]; 0.0001 μg/ml, Donor A/Donor B): 10700 cpm | 3H-thymidine uptake ([3]; 0.0001 μg/ml, Donor C/Donor D): 18512 cpm | 3H-thymidine uptake ([3]; 0.001 μg/ml, Donor A/Donor B): 7285 cpm | 3H-thymidine uptake ([3]; 0.001 μg/ml, Donor C/Donor D): 17138 cpm | 3H-thymidine uptake ([3]; 0.01 μg/ml, Donor A/Donor B): 7790 cpm | 3H-thymidine uptake ([3]; 0.01 μg/ml, Donor C/Donor D): 15337 cpm | 3H-thymidine uptake ([3]; 0.1 μg/ml, Donor A/Donor B): 6582 cpm | 3H-thymidine uptake ([3]; 0.1 μg/ml, Donor C/Donor D): 8187 cpm | 3H-thymidine uptake ([3]; 1 μg/ml, Donor A/Donor B): 5909 cpm | 3H-thymidine uptake ([3]; 1 μg/ml, Donor C/Donor D): 5143 cpm | suppressive activity in human allogenic MLR (in words) [3]: exhibited suppressive activity in human allogenic MLR in a concentration-dependent manner | inhibition at 0.0001 µg/mL [3, 4]: 10.7% | inhibition at 0.0001 µg/mL [3, 5]: 7.9% | inhibition at 0.001 µg/mL [3, 6]: 41.3% | inhibition at 0.001 µg/mL [3, 7]: 14.9% | inhibition at 0.01 µg/mL [3, 8]: 36.8% | inhibition at 0.01 µg/mL [3, 9]: 24.1% | inhibition at 0.1 µg/mL [3, 10]: 47.6% | inhibition at 0.1 µg/mL [3, 11]: 60.5% | inhibition at 1 µg/mL [3, 12]: 53.7% | inhibition at 1 µg/mL [3, 13]: 76%

SMILES: CCCCCCCCCCCCC/C=C/C[C@@H](O)[C@H](O)[C@@](N)(CO)C(=O)O [Example 5]
IL-2 activity ([1]; 0.001 μg/ml): 8.6 U/ml | IL-2 activity ([1]; 0.01 μg/ml): 4.6 U/ml | IL-2 activity ([1]; 0.1 μg/ml): 4.3 U/ml | IL-2 activity ([1]; 1 μg/ml): 2.7 U/ml | inhibition at 0.001 µg/mL ([1]; 0.001 μg/ml): 36.3% | inhibition at 0.01 µg/mL ([1]; 0.01 μg/ml): 65.9% | inhibition at 0.1 µg/mL ([1]; 0.1 μg/ml): 68.1% | inhibition at 1 µg/mL ([1]; 1 μg/ml): 80% | 3H-thymidine uptake ([2]; 0.0001 μg/ml, Table 1A): 15747 cpm | 3H-thymidine uptake ([2]; 0.0001 μg/ml, Table 1B): 4485 ± 812 cpm | Suppression ([2]; 0.0001 μg/ml, Table 1B): 18.1% | 3H-thymidine uptake ([2]; 0.001 μg/ml, Table 1A): 2384 cpm | 3H-thymidine uptake ([2]; 0.001 μg/ml, Table 1B): 6101 ± 356 cpm | Suppression ([2]; 0.001 μg/ml, Table 1B): 0% | 3H-thymidine uptake ([2]; 0.01 μg/ml, Table 1A): 1421 cpm | 3H-thymidine uptake ([2]; 0.01 μg/ml, Table 1B): 1013 ± 314 cpm | 3H-thymidine uptake ([2]; 0.1 μg/ml, Table 1A): 1091 cpm | 3H-thymidine uptake ([2]; 0.1 μg/ml, Table 1B): 359 ± 54 cpm | 3H-thymidine uptake ([2]; 1 μg/ml, Table 1A): 1163 cpm | 3H-thymidine uptake ([2]; 1 μg/ml, Table 1B): 52 ± 24 cpm | inhibition at 0.0001 µg/mL ([2]; 0.0001 μg/ml, Table 1A): 16% | inhibition at 0.001 µg/mL ([2]; 0.001 μg/ml, Table 1A): 95.5% | inhibition at 0.01 µg/mL ([2]; 0.01 μg/ml, Table 1A): 100% | inhibition at 0.01 µg/mL ([2]; 0.01 μg/ml, Table 1B): 92.2% | inhibition at 0.1 µg/mL ([2]; 0.1 μg/ml, Table 1A): 100% | inhibition at 0.1 µg/mL ([2]; 0.1 μg/ml, Table 1B): 100% | inhibition at 1 µg/mL ([2]; 1 μg/ml, Table 1A): 100% | inhibition at 1 µg/mL ([2]; 1 μg/ml, Table 1B): 100% | IC50 [2]: 0.00025 µg/mL (≈ 0.000645 µM) | 3H-thymidine uptake ([3]; 0.00001 μg/ml, Donor A/Donor B): 14723 cpm | 3H-thymidine uptake ([3]; 0.0001 μg/ml, Donor A/Donor B): 8052 cpm | 3H-thymidine uptake ([3]; 0.0001 μg/ml, Donor C/Donor D): 15723 cpm | 3H-thymidine uptake ([3]; 0.001 μg/ml, Donor A/Donor B): 5363 cpm | 3H-thymidine uptake ([3]; 0.001 μg/ml, Donor C/Donor D): 7145 cpm | 3H-thymidine uptake ([3]; 0.01 μg/ml, Donor A/Donor B): 5042 cpm | 3H-thymidine uptake ([3]; 0.01 μg/ml, Donor C/Donor D): 5878 cpm | 3H-thymidine uptake ([3]; 0.1 μg/ml, Donor A/Donor B): 4660 cpm | 3H-thymidine uptake ([3]; 0.1 μg/ml, Donor C/Donor D): 4703 cpm | 3H-thymidine uptake ([3]; 1 μg/ml, Donor A/Donor B): 5545 cpm | 3H-thymidine uptake ([3]; 1 μg/ml, Donor C/Donor D): 5601 cpm | suppressive activity in human allogenic MLR (in words) [3]: exhibited suppressive activity in human allogenic MLR in a concentration-dependent manner | inhibition at 10 pg/mL ([3]; Homo sapiens, Lymphocyte, 0.00001 μg/ml, Donor A/Donor B, read-out: Suppression): 0% | inhibition at 0.0001 µg/mL [3, 4]: 34.4% | inhibition at 0.0001 µg/mL [3, 5]: 22.1% | inhibition at 0.001 µg/mL [3, 6]: 58.5% | inhibition at 0.001 µg/mL [3, 7]: 65.8% | inhibition at 0.01 µg/mL [3, 8]: 61.4% | inhibition at 0.01 µg/mL [3, 9]: 72.3% | inhibition at 0.1 µg/mL [3, 10]: 64.8% | inhibition at 0.1 µg/mL [3, 11]: 78.3% | inhibition at 1 µg/mL [3, 12]: 56.9% | inhibition at 1 µg/mL [3, 13]: 73.7%
